Results taken from patent US10858628B2, “Methods and compositions for inducing hematopoietic cell differentiation” (Fate Therapeutics, Inc., priority 2015, dated 2020).

What was measured:
Format in all cases: cell-based, human
hiPSCs [1] = experiment: hiPSC monolayer hematopoietic differentiation (iCD34 platform), CD34+ HE population at D10 by flow cytometry
Protocol: The iCD34 platform is an optimized system for hematopoietic lineage cells differentiation. To initiate differentiation towards the hematopoietic lineage, hiPSCs were seeded as a monolayer on Day (D) 0 in the maintenance medium and allowed to adhere and expand for about 24 hours. At this point, the maintenance medium was removed and replaced with base medium without maintenance factors at D1. Hematopoietic differentiation was initiated at around D2 by switching the culture medium to iCD34−A (see FIG. 1). […] The monolayers were maintained until around D5-D6 at which point they were dissociated into single cells and seeded as a low density monolayer in iCD34−C medium until differentiation around D10. Low oxygen tension (2-10% O2) was maintained from the onset of hematopoietic differentiation around D2 up until around D10 of differentiation.
During the culture process, the directed differentiation towards the hematopoietic lineage was monitored by the dissociation of the monolayers into single cells and analysis for the surface marker expression of CD34, and optionally, CD43, CD45, CXCR4, CD73 and/or CD93 (FIG. 4A). At around D8 of differentiation, the appearance of a cell population representing HE was observed by the cell surface expression signature CD34+. CD43−CXCR4−CD73− was also observed in the CD34+ cells. The CD34+ population was maintained until around D10 (FIG. 4A). At D10, which time point can be shortened to about D9 or extended until about D12, the cells were dissociated into single cells and the CD34+ HE population was sorted by FACS using a BD FACS Aria for further analysis and functional assessment.
To optimize the efficient generation of HE from hiPSCs after around 10 days of differentiation several parameters were examined. The optimal plating density of the monolayers at D0 of differentiation was assessed by plating increasing numbers of hiPSCs from 7.5×10^4/well to 1.5×10^5/well on Matrigel™-coated 6 well culture dishes and then analyzing the generation of the CD34+ HE population at about D10. […] Despite this decrease, the highest conversion rate of hiPSCs to HE after 10 days of monolayer differentiation was at the highest plating density tested at 1.5×10^5/well (FIG. 4C).
The effect of the concentration of BMP4 modulation during the initial stages of hematopoietic differentiation on the generation of HE was assessed by treating the cultures with increasing concentrations of BMP4 ranging from 0 ng/ml to 30 ng/ml from about D2 to about D6 of differentiation. The generation of HE at D10 was assessed by the detection of the CD34+ HE population.
The Wnt pathway activator CHIR99021 is responsible for the induction of the definitive hematopoietic program from hiPSCs. The effect of the modulation of CHIR during the induction phase of the hematopoietic differentiation protocol was assessed by treating the cultures with increasing concentrations of CHIR from about D3.75 to about D6.

hiPSCs [2] = experiment: WNT signaling modulation from day 6 of differentiation, CD34+CD43-CD93- HE analyzed at Day 10
Protocol: To optimize the efficient generation of definitive HE from hiPSCs after 10 days of directed differentiation, the effect of modulation of the WNT signaling pathway was examined. At day 6 of differentiation, cell cultures were differentiated in the presence of the GSK3 inhibitor CHIR99021, a Wnt agonist, or IWP2, a WNT inhibitor (FIG. 29A). The generation of CD34+CD43−CD93− HE was analyzed at Day 10.

Day 10 CD34+CD43- cells [3] = experiment: MPP differentiation of WNT modulated HE
Protocol: Approximately 30,000 CD34+ HE cells were plated as a monolayer in iMPP-A media and further cultured for 6-8 days. FIG. 6A illustrates the phenotypic alterations in the monolayer cultures with the emergence of round hematopoietic cells and flow cytometric staining identifies the presence of CD45+ over the 6-8 day culture period.
(§1) To determine the potency of the WNT modulated HE, the pan-hematopoietic and lymphoid potential of the untreated, IWP2- and CHIR99021-treated HE was each assessed. Day 10 CD34+CD43− cells were isolated by FACS and plated in MPP differentiation and iNK differentiation cultures as provided herein.

Day 10 CD34+CD43- cells [4] = experiment: iNK differentiation of WNT modulated HE
Protocol: Specific to NK cells, upon sorting, the HE cells were cultured on low attachment tissue culture plates in iNK-A2 serum-free differentiation media containing SCF, TPO, Flt3L, IL3, IL15, and IL7 (FIG. 3). After 5 days, the cells were transferred to adherent cultures containing DLL4-expressing stromal cells in iNK-B2 differentiation media containing SCF, IL3, IL15, Flt3L and IL7 to complete NK cell differentiation. After approximately 10-15 days of culturing (post HE isolation) the cell culture was assessed for the generation of NK cell progenitors followed by mature NK subsets following an additional 10-15 days of culturing. CD56 and CD161 (NKR-P1A) are the first cell surface markers to be expressed during early NK cell development followed by the expression of CD16, KIR, CD8 and NKG2D (CD314) on later mature NK cell subsets. FIG. 11 depicts the in vitro differentiation capability of the Day 10 HE population to give rise to early NK cell progenitors and mature NK cell subsets by analysis of a CD45+ population generated in the co-cultures.
as §1

[5] = system: umbilical cord blood CD34+ cells; experiment: Stromal-free NK differentiation on plate-bound DLL4 protein, cord blood cells; conditions: versus stromal-based and stromal-free control cultures
Protocol: Specific to NK cells, enriched umbilical cord blood CD34+ cells were plated in iNK-A2 serum-free differentiation media containing SCF, Flt3L, TPO, IL3, IL15 and IL7 in culture plates containing DLL4 protein or control protein. After 5 days the iNK-B2 medium was maintained to complete NK cell differentiation. After approximately 10-15 days of culture, the culture was assessed for the generation of NK cell progenitors and the absence of myeloid cells. CD56, CD7 and CD161 are the first cell surface markers to be expressed during NK cell development. CD11b and CD14 are cell surface markers expressed on myeloid cell subsets. FIG. 18 depicts stromal-free differentiation of umbilical cord blood CD34+ cells towards NK cells. […] Early NK lineage markers identify the presence of ipro-NK cells as defined by CD56, CD7 and CD161 and the absence of myeloid markers CD11b and CD14.

[6] = system: Day 10 CD34+ iHE sorted cells; experiment: Stromal-free NK differentiation on plate-bound DLL4 protein, hiPSC-derived cells
Excerpt: Then the hiPSC-derived CD34+ cells were differentiated towards the NK cell lineage for 20 days and then placed in suspension culture for further maturation. […] After 5 days iNK-B2 media was maintained to complete NK cell differentiation. Markers for identifying the presence of mature NK cells include CD56, CD122, NKp30, CD94, CD16, NKG2D and KIR.

[7] = CHIR from about D3.75 to about D6

Cc1c[nH]c(-c2cnc(NCCNc3ccc(C#N)cn3)nc2-c2ccc(Cl)cc2Cl)n1 [CHIR99021]
effect of increasing concentration on percentage of the HE subpopulation (hiPSCs [1]; [7]): decreases the percentage of the HE subpopulation | effect of increasing concentration on total percentage of CD34+ cells (hiPSCs [1]; [7]): increases the total percentage of CD34+ cells | optimal concentration of CHIR99021 for HE subpopulation (hiPSCs [1]; [7]): approximately 1 uM | number and percentage of phenotypic CD34+CD43-CD93- HE (FIG. 29B legend) (hiPSCs [2]): increased the number and the percentage | HE cellularity (total HE cell number, HE proliferation) (hiPSCs [2]; treated from day 6): improved HE cellularity | percentage of CD34+CD43- cells at Day 10 (hiPSCs [2]; treated from day 6): slight decrease | increase in number and percentage of phenotypic CD34+CD43-CD93- HE (hiPSCs [2]; treated from day 6, Day 10): 2-3 fold | production of CD45+ cells from the modulated HE (FIG. 30A legend) (Day 10 CD34+CD43- cells [3]): increased the production of CD45+ cells | increased presence of CD45+ cells (hematopoietic potency) (Day 10 CD34+CD43- cells [3]; after 7 days of MPP differentiation): 5-6 fold | production of NK progenitor cells from the modulated HE (FIG. 30B legend) (Day 10 CD34+CD43- cells [4]): increased the production of NK progenitor cells | increased presence of CD56+CD7+ NK progenitor cells (lymphoid capacity) (Day 10 CD34+CD43- cells [4]; after 20 days of iNK differentiation): 5-6 fold

DLL4: plate-bound DLL4 protein, Notch activator
differentiation of CD56+CD7+CD161+ NK cell progenitors [5]: supports a more rapid and efficient differentiation | differentiation of NK cell progenitors versus myeloid cells [6]: supports the differentiation of CD56+CD7+CD161+ NK cell progenitors but not CD11b+ myeloid cells

Cc1ccc2nc(NC(=O)CSc3nc4c(c(=O)n3-c3ccccc3)SCC4)sc2c1 [IWP2]
HE cell numbers at Day 10 (hiPSCs [2]; treated from day 6): overall decrease in HE cell numbers | percentage of phenotypic HE at Day 10 (hiPSCs [2]; treated from day 6): did not affect the percentage of phenotypic HE

B1: BMP4: bone morphogenetic protein, BMP pathway activator (protein, UniProt P12644 293-408, looked up)
Bone morphogenetic protein 4: SPKHHSQRARKKNKNCRRHSLYVDFSDVGWNDWIVAPPGYQAFYCHGDCPFPLADHLNSTNHAIVQTLVNSVNSSIPKACCVPTELSAISMLYLDEYDKVVLKNYQEMVVEGCGCR
optimal concentration of BMP4 for HE population at D10 (hiPSCs [1]; BMP4 0 ng/ml to 30 ng/ml from about D2 to about D6): about 3 ng/mL | effect of increasing BMP4 concentration on HE population at D10 (hiPSCs [1]; BMP4 from D2 to D6, below a threshold concentration): increases the HE population at D10
